Data from US20100205696A1, “NOVEL HERBICIDE RESISTANCE GENE” (UNIVERSITY OF TENNESSEE RESEARCH FOUNDATION, priority 2009, published 2010).

How the values were obtained:
PtJBMT = assay: Radiochemical methyltransferase assay (detoxification activity) with PtJBMT; type: biochemical; conditions: 1 mM substrate, 3 μM 14C-SAM, 25° C., 30 min; relative to the activity of PtJBMTm3 with jasmonic acid set as 1
Protocol: (§1) The detoxification activity of PtJBMTm3 was determined using radiochemical methyltransferase assays. The assays were performed with a 50 μL volume containing 50 mM Tris-HCl, pH 7.5, 1 mM of individual auxin mimic herbicides dissolved in water, and 3 μM ^14C—S-Adenosyl methionine (SAM) with a specific activity of 51.4 mCi/mmol (Perkin Elmer, Boston, Mass.). The assay was initiated by addition of SAM, maintained at 25° C. for 30 min, and stopped by addition of […] (150 μL). After phase separation by one min centrifugation at 14,000 g, the upper organic phase was counted using a liquid scintillation counter (Beckman Coulter, Fullerton, Calif.) as previously described (D'Auria et al., 2002). Radioactivity counts in the organic phase indicated the amount of synthesized methyl esters, which are the detoxificated products of individual auxin mimic herbicides. The relative assay activities of PtJBMT and PtJBMTm3 with auxin-based herbicides is illustrated in Table 2 (the activity of PtJBMTm3 with jasmonic acid was set as 1).

PtJBMTm3 = assay: Radiochemical methyltransferase assay (detoxification activity) with PtJBMTm3; type: biochemical; conditions: 1 mM substrate, 3 μM 14C-SAM, 25° C., 30 min; for Relative assay activity of PtJBMT M3: relative to the activity of PtJBMTm3 with jasmonic acid set as 1
Protocol: as §1

Compound | Relative assay activity of PtJBMT (PtJBMT) | Relative assay activity of PtJBMT M3 (PtJBMTm3) | Relative assay activity of PtJBMT M3 (reference, set as 1) (PtJBMTm3; reference value set as 1)
O=C(O)c1c(Cl)ccc(Cl)c1Cl [2,3,6 Trichloro-benzoic acid] | 15.0% | 75.4% | –
O=C(O)COc1cc(Cl)c(Cl)cc1Cl [2,4,5-T] | 0.4% | 25.5% | –
O=C(O)COc1ccc(Cl)cc1Cl [2,4-D, 2,4-dichlorophenoxyacetic acid] | 1.7% | 57.5% | –
O=C(O)CCCOc1ccc(Cl)cc1Cl [2,4-DB] | 0.5% | 38.7% | –
O=C(O)Cc1c[nH]c2cccc(Cl)c12 [4-Cl-IAA] | 1.1% | 33.6% | –
O=C(O)CCCc1c[nH]c2ccccc12 [IBA] | 0.8% | 30.3% | –
CC/C=C\C[C@H]1C(=O)CC[C@@H]1CC(=O)O [Jasmonic acid] | 85.1% | – | 1
Cc1cc(Cl)ccc1OCC(=O)O [MCPA] | 3.5% | 70.0% | –
Cc1cc(Cl)ccc1OCCCC(=O)O [MCPB] | 0.1% | 11.0% | –
O=C(O)Cc1cccc2ccccc12 [NAA] | 7.8% | 91.8% | –
O=C(O)Cc1ccccc1 [PAA] | 0.8% | 58.3% | –
CC(C)(Oc1ccc(Cl)cc1)C(=O)O [PCIB] | 8.0% | 96.9% | –
O=C(O)c1nc(Cl)ccc1Cl [clopyralid] | 17.1% | 94.1% | –
COc1c(Cl)ccc(Cl)c1C(=O)O [dicamba] | 2.3% | 73.9% | –
CC(Oc1ccc(Cl)cc1Cl)C(=O)O (centres unmarked) [dichlorprop] | 7.3% | 73.0% | –
Nc1c(Cl)c(F)nc(OCC(=O)O)c1Cl [fluroxypyr] | 0.6% | 4.2% | –
Cc1cc(Cl)ccc1OC(C)C(=O)O (centres unmarked) [mecoprop] | 12.8% | 87.5% | –
Nc1c(Cl)c(Cl)nc(C(=O)O)c1Cl [picloram] | 3.7% | 78.1% | –
O=C(O)c1c(Cl)ccc2cc(Cl)cnc12 [quinclorac] | 11.2% | 91.3% | –
